According to ChEMBL document CHEMBL2202997, “Ex vivo study of the vasorelaxant activity induced by phenanthrene derivatives isolated from Maxillaria densa” (J Nat Prod, 2012):
Activity calls are given as the source filed them. The calls are words filed in the database; no cut-off is given here.

Experiments:
Aorta [1] = test: Vasorelaxant activity in Wistar rat aorta with endothelium assessed as inhibition of norepinephrine-induced contraction; type: functional, tissue-based
Aorta [2] = test: Vasorelaxant activity in Wistar rat aorta with endothelium assessed as inhibition of norepinephrine-induced contraction relative to control; type: functional
Aorta [3] = test: Vasorelaxant activity in Wistar rat aorta without endothelium assessed as inhibition of norepinephrine-induced contraction; type: functional, tissue-based
Aorta [4] = test: Vasorelaxant activity in Wistar rat aorta without endothelium assessed as inhibition of norepinephrine-induced contraction relative to control; type: functional
Aorta [5] = test: Vasorelaxant activity in Wistar rat aorta without endothelium assessed as inhibition of extracellular Ca2+-induced contractions activated by potassium chloride-induced contraction relative to control; type: functional
Aorta [6] = test: Vasorelaxant activity in Wistar rat endothelium-denuded aorta assessed as inhibition of FPL-64176-induced contraction at 11 to 63 uM; type: functional, tissue-based
Aorta [7] = test: Vasorelaxant activity in Wistar rat endothelium-denuded aorta assessed as inhibition of CaCl2-induced contraction; type: functional, tissue-based
Aorta [8] = test: Vasorelaxant activity in Wistar rat endothelium-denude aorta assessed as inhibition of norepinephrine-induced contraction in presence of soluble guanylyl cyclase inhibitor ODQ; type: functional, tissue-based
Aorta [9] = test: Induction of relaxation in Wistar rat endothelium-denuded aorta in presence of potassium channel blocker glibenclamide; type: functional, tissue-based
Aorta [10] = test: Induction of relaxation in Wistar rat endothelium-denuded aorta in presence of potassium channel blocker TEA; type: functional, tissue-based
Aorta [11] = test: Vasorelaxant activity in Wistar rat aorta without endothelium assessed as inhibition of extracellular Ca2+-induced contractions activated by potassium chloride-induced contraction; type: functional, tissue-based

Row | Compound | EC50 (Aorta [1]) [µM] | Efficacy (Aorta [2]) [%] | inhibition (Aorta [1]) | EC50 (Aorta [3]) [µM] | inhibition (Aorta [3]) | Efficacy (Aorta [4]) [%] | Efficacy (Aorta [5]) [%] | inhibition (Aorta [6]) | inhibition (Aorta [7]) | inhibition (Aorta [8]) | Activity (Aorta [9]) | Activity (Aorta [10]) | EC50 (Aorta [11]) [µM]
1 | C[N+](C)(C)CCOC(N)=O.[Cl-] [CARBACHOL] | 0.41 | 74.06 |  |  |  |  |  |  |  |  |  |  | 
2 | COc1c(O)cc2cc(OC)c3cc(O)ccc3c2c1OC [GYMNOPUSIN] | 63 | 94 | Dose-dependent effect | 70.2 | Dose-dependent effect | 98.18 | 71.3 | Dose-dependent effect | Active | Active | inactive | inactive | 119
3 | COC(=O)C1=C(C)NC(C)=C(C(=O)OC)C1c1ccccc1[N+](=O)[O-] [NIFEDIPINE] |  |  |  | 4.31 |  | 97 |  |  |  |  |  |  | 

The next lines start with results.

Row | EC50 (Aorta [1]) [µM] | Compound | Efficacy (Aorta [2]) [%] | inhibition (Aorta [1]) | EC50 (Aorta [3]) [µM] | inhibition (Aorta [3]) | Efficacy (Aorta [4]) [%] | Efficacy (Aorta [5]) [%] | inhibition (Aorta [6]) | inhibition (Aorta [7]) | inhibition (Aorta [8]) | Activity (Aorta [9]) | Activity (Aorta [10]) | EC50 (Aorta [11]) [µM]
4 | 142 | COc1c(O)cc2c(c1OC)-c1ccc(O)cc1CC2 [ERIANTHRIDIN] | 85.47 | Dose-dependent effect | 167 | Dose-dependent effect | 82.4 |  |  |  |  |  |  | 
5 | 234 | COc1c(O)cc2cc(OC)c3cccc(O)c3c2c1OC [FIMBRIOL A] | 83.05 | Dose-dependent effect | 288 | Dose-dependent effect | 73.86 |  |  |  |  |  |  | 
